Measurements from publication PMC3626541, “A first in human, safety, pharmacokinetics, and clinical activity phase I study of once weekly administration of the Hsp90 inhibitor ganetespib (STA-9090) in patients with solid malignancies” (BMC Cancer, 2013).

System: patients with advanced solid tumors
Assay: Safety: adverse events (NCI CTCAE v3.0), ECG
Assay type: in vivo, human
Description: Patients’ demographics and medical history were recorded at baseline. Physical examination and PS were assessed at baseline and on Day 1 of each cycle. Adverse events (AEs), vital signs, hematology and chemistry values, and creatinine clearance were assessed at baseline and weekly during treatment. Toxicity was graded using National Cancer Institute Common Terminology Criteria for Adverse Events (NCI CTCAE), version 3.0. An electrocardiogram (ECG) was performed at baseline, before and after treatment on Days 1 and 15 of Cycles 1 and 2, and on Day 15 of even-numbered cycles thereafter. CT scans were done at baseline and every 8 weeks thereafter. Tumor response was assessed using Response Evaluation Criteria in Solid Tumors (RECIST, v1.0), with confirmation of responses performed at least 4 weeks later.

[1] = Cycle 1 Day 1 post-dose, patients with QTc prolongation
[2] = repeat ECG later on the same day

Structure (SMILES): CC(C)c1cc(-c2n[nH]c(=O)n2-c2ccc3c(ccn3C)c2)c(O)cc1O [Ganetespib, 5-[2,4-dihydroxy-5-(1 methyl-ethyl)phenyl]-2,4 dihydro-4-(1-methyl-1H indol-5 yl)-3H-1,2,4 triazole-3-one]
- Constipation, AE of any grade, Number (%) of patients (150-216 mg/m^2, n = 22): 3 (13.6) n (%)
- Decreased appetite, AE of any grade, Number (%) of patients (150-216 mg/m^2, n = 22): 8 (36.4) n (%)
- Dehydration, AE of any grade, Number (%) of patients (150-216 mg/m^2, n = 22): 3 (13.6) n (%)
- Dehydration, CTCAE Grade 3 and 4 AE, Number (%) of patients (150-216 mg/m^2, n = 22): 1 (4.5) n (%)
- Dehydration, serious adverse events, Number (%) of patients (150-216 mg/m^2, n = 22): 1 (4.5) n (%)
- Diarrhea, AE of any grade, Number (%) of patients (150-216 mg/m^2, n = 22): 21 (95.5) n (%)
- Diarrhea, CTCAE Grade 3 and 4 AE, Number (%) of patients (150-216 mg/m^2, n = 22): 2 (9.1) n (%)
- Dizziness, AE of any grade, Number (%) of patients (150-216 mg/m^2, n = 22): 3 (13.6) n (%)
- Dry mouth, AE of any grade, Number (%) of patients (150-216 mg/m^2, n = 22): 3 (13.6) n (%)
- Dyspnea, AE of any grade, Number (%) of patients (150-216 mg/m^2, n = 22): 4 (18.2) n (%)
- Extremity pain, AE of any grade, Number (%) of patients (150-216 mg/m^2, n = 22): 1 (4.5) n (%)
- Fatigue, AE of any grade, Number (%) of patients (150-216 mg/m^2, n = 22): 13 (59.1) n (%)
- Fatigue, CTCAE Grade 3 and 4 AE, Number (%) of patients (150-216 mg/m^2, n = 22): 4 (18.2) n (%)
- Headache, AE of any grade, Number (%) of patients (150-216 mg/m^2, n = 22): 6 (27.3) n (%)
- Hyperbilirubinemia, CTCAE Grade 3 and 4 AE, Number (%) of patients (150-216 mg/m^2, n = 22): 2 (9.1) n (%)
- Hypokalemia, AE of any grade, Number (%) of patients (150-216 mg/m^2, n = 22): 4 (18.2) n (%)
- Hypokalemia, CTCAE Grade 3 and 4 AE, Number (%) of patients (150-216 mg/m^2, n = 22): 2 (9.1) n (%)
- Hyponatremia, CTCAE Grade 3 and 4 AE, Number (%) of patients (150-216 mg/m^2, n = 22): 0 n (%)
- Hypophosphatemia, AE of any grade, Number (%) of patients (150-216 mg/m^2, n = 22): 2 (9.1) n (%)
- Hypophosphatemia, CTCAE Grade 3 and 4 AE, Number (%) of patients (150-216 mg/m^2, n = 22): 2 (9.1) n (%)
- Insomnia, AE of any grade, Number (%) of patients (150-216 mg/m^2, n = 22): 6 (27.3) n (%)
- Musculoskeletal chest pain, AE of any grade, Number (%) of patients (150-216 mg/m^2, n = 22): 4 (18.2) n (%)
- Nausea, AE of any grade, Number (%) of patients (150-216 mg/m^2, n = 22): 7 (31.8) n (%)
- Peripheral edema, AE of any grade, Number (%) of patients (150-216 mg/m^2, n = 22): 5 (22.7) n (%)
- Pneumonia, serious adverse events, Number (%) of patients (150-216 mg/m^2, n = 22): 1 (4.5) n (%)
- Rash, AE of any grade, Number (%) of patients (150-216 mg/m^2, n = 22): 1 (4.5) n (%)
- Serum amylase elevated, CTCAE Grade 3 and 4 AE, Number (%) of patients (150-216 mg/m^2, n = 22): 1 (4.5) n (%)
- Spinal cord compression, CTCAE Grade 3 and 4 AE, Number (%) of patients (150-216 mg/m^2, n = 22): 0 n (%)
- Urinary tract infection, AE of any grade, Number (%) of patients (150-216 mg/m^2, n = 22): 3 (13.6) n (%)
- Vomiting, AE of any grade, Number (%) of patients (150-216 mg/m^2, n = 22): 3 (13.6) n (%)
- Weight decreased, AE of any grade, Number (%) of patients (150-216 mg/m^2, n = 22): 5 (22.7) n (%)
- ALT elevated, AE of any grade, Number (%) of patients (150-216 mg/m^2, n = 22, first of two ALT elevated lines): 5 (22.7) n (%)
- ALT elevated, AE of any grade, Number (%) of patients (150-216 mg/m^2, n = 22, second of two ALT elevated lines): 3 (13.6) n (%)
- Incidence of diarrhea (150–216 mg/m^2 dose levels): 95.5%
- Incidence of fatigue (150–216 mg/m^2 dose levels): 59.1%
- ALT elevation, CTCAE Grade 3 and 4 AE, Number (%) of patients (All patients, n = 53): 3 (5.7) n (%)
- AST elevated, AE of any grade, Number (%) of patients (All patients, n = 53): 9 (17) n (%)
- Abdominal distension, AE of any grade, Number (%) of patients (All patients, n = 53): 6 (11.3) n (%)
- Abdominal pain, AE of any grade, Number (%) of patients (All patients, n = 53): 20 (37.7) n (%)
- Abdominal pain, serious adverse events, Number (%) of patients (All patients, n = 53): 2 (3.8) n (%)
- Anemia, AE of any grade, Number (%) of patients (All patients, n = 53): 16 (30.2) n (%)
- Any event, AE of any grade, Number (%) of patients (All patients, n = 53): 53 (100) n (%)
- Any event, CTCAE Grade 3 and 4 AE, Number (%) of patients (All patients, n = 53): 36 (67.9) n (%)
- Any event, serious adverse events, Number (%) of patients (All patients, n = 53): 15 (28.3) n (%)
- Arthralgia, CTCAE Grade 3 and 4 AE, Number (%) of patients (All patients, n = 53): 2 (3.8) n (%)
- Asthenia, AE of any grade, Number (%) of patients (All patients, n = 53): 8 (15.1) n (%)
- Asthenia, CTCAE Grade 3 and 4 AE, Number (%) of patients (All patients, n = 53): 4 (7.5) n (%)
- Asthenia, serious adverse events, Number (%) of patients (All patients, n = 53): 2 (3.8) n (%)
- Back pain, AE of any grade, Number (%) of patients (All patients, n = 53): 8 (15.1) n (%)
- Constipation, AE of any grade, Number (%) of patients (All patients, n = 53): 9 (17) n (%)
- Decreased appetite, AE of any grade, Number (%) of patients (All patients, n = 53): 11 (20.8) n (%)
- Dehydration, AE of any grade, Number (%) of patients (All patients, n = 53): 7 (13.2) n (%)
- Dehydration, CTCAE Grade 3 and 4 AE, Number (%) of patients (All patients, n = 53): 3 (5.7) n (%)
- Dehydration, serious adverse events, Number (%) of patients (All patients, n = 53): 2 (3.8) n (%)
- Diarrhea, AE of any grade, Number (%) of patients (All patients, n = 53): 47 (88.7) n (%)
- Diarrhea, CTCAE Grade 3 and 4 AE, Number (%) of patients (All patients, n = 53): 4 (7.5) n (%)
- Dizziness, AE of any grade, Number (%) of patients (All patients, n = 53): 6 (11.3) n (%)
- Dry mouth, AE of any grade, Number (%) of patients (All patients, n = 53): 6 (11.3) n (%)
- Dyspnea, AE of any grade, Number (%) of patients (All patients, n = 53): 9 (17) n (%)
- Extremity pain, AE of any grade, Number (%) of patients (All patients, n = 53): 6 (11.3) n (%)
- Fatigue, AE of any grade, Number (%) of patients (All patients, n = 53): 30 (56.6) n (%)
- Fatigue, CTCAE Grade 3 and 4 AE, Number (%) of patients (All patients, n = 53): 6 (11.3) n (%)
- Headache, AE of any grade, Number (%) of patients (All patients, n = 53): 9 (17) n (%)
- Hyperbilirubinemia, CTCAE Grade 3 and 4 AE, Number (%) of patients (All patients, n = 53): 3 (5.7) n (%)
- Hypokalemia, AE of any grade, Number (%) of patients (All patients, n = 53): 7 (13.2) n (%)
- Hypokalemia, CTCAE Grade 3 and 4 AE, Number (%) of patients (All patients, n = 53): 2 (3.8) n (%)
- Hyponatremia, CTCAE Grade 3 and 4 AE, Number (%) of patients (All patients, n = 53): 3 (5.7) n (%)
- Hypophosphatemia, AE of any grade, Number (%) of patients (All patients, n = 53): 7 (13.2) n (%)
- Hypophosphatemia, CTCAE Grade 3 and 4 AE, Number (%) of patients (All patients, n = 53): 4 (7.5) n (%)
- Insomnia, AE of any grade, Number (%) of patients (All patients, n = 53): 10 (18.9) n (%)
- Musculoskeletal chest pain, AE of any grade, Number (%) of patients (All patients, n = 53): 6 (11.3) n (%)
- Nausea, AE of any grade, Number (%) of patients (All patients, n = 53): 18 (34) n (%)
- Peripheral edema, AE of any grade, Number (%) of patients (All patients, n = 53): 9 (17) n (%)
- Pneumonia, serious adverse events, Number (%) of patients (All patients, n = 53): 2 (3.8) n (%)
- Rash, AE of any grade, Number (%) of patients (All patients, n = 53): 6 (11.3) n (%)
- Serum amylase elevated, CTCAE Grade 3 and 4 AE, Number (%) of patients (All patients, n = 53): 2 (3.8) n (%)
- Spinal cord compression, CTCAE Grade 3 and 4 AE, Number (%) of patients (All patients, n = 53): 2 (3.8) n (%)
- Urinary tract infection, AE of any grade, Number (%) of patients (All patients, n = 53): 8 (15.1) n (%)
- Vomiting, AE of any grade, Number (%) of patients (All patients, n = 53): 10 (18.9) n (%)
- Weight decreased, AE of any grade, Number (%) of patients (All patients, n = 53): 7 (13.2) n (%)
- ALT elevated, AE of any grade, Number (%) of patients (All patients, n = 53, first of two ALT elevated lines): 10 (18.9) n (%)
- ALT elevated, AE of any grade, Number (%) of patients (All patients, n = 53, second of two ALT elevated lines): 6 (11.3) n (%)
- QT [1]: 438 ms
- QTc (QT with Bazett correction) [1]: 457 ms
- Patients with dose reduction (all 53 patients): 7.5%
- Patients with dose reduction and delay (all 53 patients): 7.5%
- Patients with missed dose (all 53 patients): 30.2%
- Patients with dose modification (all 53 patients, mainly due to adverse events): 45.3%
- Patients who discontinued treatment due to drug-unrelated adverse events (all in cohort 1): 5.7%
- Patients with Grade 3 or 4 AE (all patients): 67.9%
- Patients with Grade 3 or 4 fatigue (all patients): 11.3%
- Patients with diarrhea, Grade 1 and 2 (all patients): 88.7%
- Patients with fatigue, Grade 1 and 2 (all patients): 56.6%
- Patients with onset of diarrhea between days 1–7 (all patients): 75.5%
- Patients with transient ALP elevation (all patients): 18.9%
- Patients with transient ALT elevation (all patients): 11.3%
- Patients with transient AST elevation (all patients): 17%
- Patients with treatment-related anemia (all patients): 5.7%
- Patients with treatment-related neutropenia (all patients): 5.7%
- Patients with visual changes (all patients, mild and transient): 15%
- Patients with abdominal pain (all patients, mild to moderate): 37.7%
- Patients with nausea (all patients, mild to moderate): 34%
- Patients with vomiting (all patients, mild to moderate): 18.9%
- Patients with on-treatment SAEs (all patients, none considered treatment-related): 28.3%
- Patients with Grade 2 or 3 hyberbilirubinemia (all patients, not considered study drug-related): 7.5%
- Patients with Grade 1 or 2 blurred vision (doses of 35 mg/m^2, 114 mg/m^2 and 150 mg/m^2): Three patients
- Patients with QTc prolongation (higher dose levels, Cycle 1 Day 1 post-dose): Three patients
- Patients with treatment-related visual impairment (mild and transient): Two patients
- Deaths during the study (none deemed treatment-related): Three deaths
- Patients with QTc changes (not symptomatic, not considered clinically meaningful): 91%
- Patients with Grade 1 transient visual impairment (one each at 216 and 259 mg/m^2, possibly related to study drug): 2 patients
- QT [2]: 414 ms
- QTc [2]: 433 ms
